Reference: patent US12410207B2, “Galactoside inhibitor of galectins” (GALECTO BIOTECH AB, priority 2019, dated 2025)

How the values were obtained:
[1] = In vivo mouse pharmacokinetic experiment (plasma and brain)
Protocol: FIG. 1 compares the mean plasma levels after IV and PO administration
FIG. 2 compares the mean brain tissue concertation after IV and PO administration
The ratio between exposure of example 35 in brain compared to plasma is determined to AUCbrain/AUCplasma=0.19 after oral administration. (AUC=area under the curve)

Galectin-1 = Galectin-1 (Homo sapiens, UniProt P09382); experiment: Fluorescence anisotropy assay, inhibition of galectin / fluorescein tagged saccharide probe interaction; details: compound as inhibitor of probe binding
Protocol: (§1) The affinity of Example 1-45 for galectins were determined by a fluorescence anisotropy assay where the compound was used as an inhibitor of the interaction between galectin and a fluorescein tagged saccharide probe as described Sörme, P., Kahl-Knutsson, B., Huflejt, M., Nilsson, U. J., and Leffler H. (2004) Fluorescence polarization as an analytical tool to evaluate galectin-ligand interactions. Anal. Biochem. 334: 36-47, (Sorme et al., 2004) and Monovalent interactions of Galectin-1 By Salomonsson, Emma; Larumbe, Amaia; Tejler, Johan; Tullberg, Erik; Rydberg, Hanna; Sundin, Anders; Khabut, Areej; Frejd, Torbjorn; Lobsanov, Yuri D.; Rini, James M.; et al, From Biochemistry (2010), 49(44), 9518-9532, (Salomonsson et al., 2010).

Galectin-3 = Galectin-3 (Homo sapiens, UniProt P17931); experiment: as above; details: compound as inhibitor of probe binding
Protocol: as §1

MDR1 = experiment: MDCK-MDR1 in vitro cell model of passage over Blood Brain Barrier; type: in vitro ADME; details: dog
MDCK-MDR1 = experiment: as above; type: in vitro ADME; details: MDCK-MDR1, result in words
galectins = details: cited from earlier work
[2] = MDCK-MDR1, first column, headed A > B
[3] = MDCK-MDR1, second column, also headed A > B

Chain of Galectin-1 (P09382 whole entry, species assumed): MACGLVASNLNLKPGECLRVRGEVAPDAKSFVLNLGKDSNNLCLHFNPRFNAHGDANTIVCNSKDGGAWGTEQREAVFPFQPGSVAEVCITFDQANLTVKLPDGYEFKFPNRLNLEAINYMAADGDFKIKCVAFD
Chain of Galectin-3 (P17931 whole entry, species assumed): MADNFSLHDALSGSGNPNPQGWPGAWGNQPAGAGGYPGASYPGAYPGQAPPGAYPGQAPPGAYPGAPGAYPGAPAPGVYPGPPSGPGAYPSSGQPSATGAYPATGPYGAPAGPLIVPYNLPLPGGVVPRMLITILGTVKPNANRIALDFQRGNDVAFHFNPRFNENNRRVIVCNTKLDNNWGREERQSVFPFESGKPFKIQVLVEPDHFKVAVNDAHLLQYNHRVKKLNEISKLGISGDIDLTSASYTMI

SMILES | systemic bioavailability ([1]; IV 1 mg/kg and PO 10 mg/kg, FIG. 1) | exposure in brain ([1]; IV 1 mg/kg and PO 10 mg/kg, FIG. 2) | Kp ([1]; brain (relative to plasma), after oral administration (PO 10 mg/kg), read-out: AUCbrain/AUCplasma) | Kd (Galectin-1) [µM] | Kd (Galectin-3) [nM] | Papp (MDR1; [2]) [×10⁻⁶ cm/s] | Papp (MDR1; [3]) [×10⁻⁶ cm/s] | efflux and uptake in in vitro cell model of BBB passage (MDCK-MDR1) | Kd (galectins; reviewed by Leffler 2001, Leffler et al. 2004, read-out: Kd, all galectins) [µM] | affinity, times lower than lactose (galectins; relative to lactose)
OC[C@H]1O[C@@H](O[C@H]2[C@H](O)[C@@H](O)C(O)O[C@@H]2CO)[C@H](O)[C@@H](O)[C@H]1O (stereo partly shown) [lactose] | – | – | – | – | – | – | – | – | 500 to 1000 | –
OCC1O[C@H](Sc2cncc(Cl)c2)C(O)C(n2cc(-c3ccc(Cl)c(F)c3)cn2)[C@H]1O (stereo partly drawn) [Example 17, 5-Chloropyridin-3-yl 3-[4-(4-chloro-3-fluorophenyl)-1H-1,2-pyrazol-1-yl]-3-deoxy-1-thio-α-D-galactopyranoside] | – | – | – | 19.7 | 29 | 28 | 49 | low or no efflux and high uptake | – | –
OCC1O[C@H](Sc2cncc(Cl)c2)C(O)C(n2cc(-c3cc(F)c(F)c(F)c3)cn2)[C@H]1O (stereo partly drawn) [Example 3, 5-Chloropyridin-3-yl 3-deoxy-3-[4-(3,4,5-trifluorophenyl)-1H-1,2-pyrazol-1-yl]-1-thio-α-D-galactopyranoside] | – | – | – | 12.8 | 28 | 14 | 39 | low or no efflux and high uptake | – | –
O=C[C@H](O)[C@@H](O)[C@@H](O)[C@H](O)CO [D-galactose] | – | – | – | – | – | – | – | – | – | 50-100 times
COC1C(n2cc(-c3cc(F)c(F)c(F)c3)cn2)[C@@H](O)C(CO)O[C@@H]1Sc1cncc(Br)c1 (stereo partly drawn) [Example 33, 5-Bromopyridin-3-yl 3-deoxy-3-[4-(3,4,5-trifluorophenyl)-1H-1,2-pyrazol-1-yl]-2-O-methyl-1-thio-α-D-galactopyranoside] | – | – | – | 3.6 | 22 | 34 | 23 | low or no efflux and high uptake | – | –
N#Cc1ncc(Cl)cc1S[C@H]1OC(CO)[C@H](O)C(n2cc(-c3cc(F)c(F)c(F)c3)cn2)C1O (stereo partly drawn) [Example 12, 5-Chloro-2-cyanopyridin-3-yl 3-deoxy-3-[4-(3,4,5-trifluorophenyl)-1H-1,2-pyrazol-1-yl]-1-thio-α-D-galactopyranoside] | – | – | – | 8.2 | 21 | 12 | 51 | low or no efflux and high uptake | – | –

Continued, in another order:

systemic bioavailability ([1]; IV 1 mg/kg and PO 10 mg/kg, FIG. 1) | exposure in brain ([1]; IV 1 mg/kg and PO 10 mg/kg, FIG. 2) | Kp ([1]; brain (relative to plasma), after oral administration (PO 10 mg/kg), read-out: AUCbrain/AUCplasma) | Kd (Galectin-1) [µM] | Kd (Galectin-3) [nM] | Papp (MDR1; [2]) [×10⁻⁶ cm/s] | Papp (MDR1; [3]) [×10⁻⁶ cm/s] | efflux and uptake in in vitro cell model of BBB passage (MDCK-MDR1) | SMILES | Kd (galectins; reviewed by Leffler 2001, Leffler et al. 2004, read-out: Kd, all galectins) [µM] | affinity, times lower than lactose (galectins; relative to lactose)
excellent systemic bioavailability | good exposure in brain | 0.19 | 3.1 | 14 | 23 | 35 | low or no efflux and high uptake | COC1C(n2cc(-c3cc(F)c(F)c(F)c3)cn2)[C@@H](O)C(CO)O[C@@H]1Sc1cc(Cl)cnc1C#N (stereo partly drawn) [Example 35, 5-Chloro-2-cyanopyridin-3-yl 3-deoxy-3-[4-(3,4,5-trifluorophenyl)-1H-1,2-pyrazol-1-yl]-2-O-methyl-1-thio-α-D-galactopyranoside] | – | –
– | – | – | 27.6 | 20 | 25 | 50 | low or no efflux and high uptake | OCC1O[C@H](Sc2cncc(Cl)c2)C(O)C(n2cc(-c3cc(F)c(Cl)c(F)c3)cn2)[C@H]1O (stereo partly drawn) [Example 2, 5-Chloropyridin-3-yl 3-[4-(4-chloro-3,5-difluorophenyl)-1H-1,2-pyrazol-1-yl]-3-deoxy-1-thio-α-D-galactopyranoside] | – | –
– | – | – | 23 | 16 | 18 | 52 | low or no efflux and high uptake | OCC1O[C@H](Sc2cncc(Br)c2)C(O)C(n2cc(-c3cc(F)c(Cl)c(F)c3)cn2)[C@H]1O (stereo partly drawn) [Example 6, 5-Bromopyridin-3-yl 3-[4-(4-chloro-3,5-difluorophenyl)-1H-1,2-pyrazol-1-yl]-3-deoxy-1-thio-α-D-galactopyranoside] | – | –
